Measurements taken from US5510247A, “Centrifugal multiphase systems and method for using the same” (University of Pittsburgh, priority 1993, dated 1996).

Tests used:
[1] = molecular target: T1, phosphotriesterase (Brevundimonas diminuta, UniProt P0A434)
[2] = molecular target: T1, phosphotriesterase; assay: Batch Michaelis-Menten kinetics of phosphotriesterase with pesticide substrates in Tween 85 reversed micelles and in Tris-HCl buffer; type: biochemical; set-up: made in house
Procedure: Solutions of micelles were prepared in the following manner: 8 ml isopropanol was added to 13 g Tween 85 and Hexane was added to achieve a mixture of 50 ml. Water or Tris-HCl buffer (0.05M, pH 7.0) and hexane were added to this mixture to yield the desired system. […] Appropriate volumes were mixed to fill 1 ml quartz cuvettes, and the reaction was followed in a spectrophotometer. (Perkin Elmer Lambda 3). Michaelis-Menten kinetic constants (discussed below) were found by non-linear regression analysis of the initial rate data.
Enzymes function as catalysts in solution by lowering the free energy of the transition state in a reaction. Like conventional catalysts, the enzyme facilitates the reaction, but is in no way altered, so that when the reaction is completed, it is available to catalyze the conversion of more substrate molecules. When a single substrate is converted to product, the schematic of the reaction can be written [drawing 2] where S and P are substrate and product, respectively, and ES is an enzyme substrate complex. When the substrate concentration is much higher than the enzyme concentration, the enzyme is said to obey the Michaelis-Menten relationship describing the reaction rate, [formula] where (E) is the total enzyme concentration and (S) is the initial substrate concentration. KM is the saturation constant, and is a function of the individual rate constants, [formula] KM has the physical meaning as the substrate concentration which yields half the maximal reaction rate (Vmax), which is dependent on the catalytic rate constant of the chemcial step, k2, as well as the enzyme concentration,
Initial experiments were performed using paraoxon, parathion and methyl paraoxon. The effect of micelle size, pH, ionic strength and temperature have been investigated.

[3] = molecular target: T1, phosphotriesterase; assay: Enzyme activity for paraoxon degradation and enzyme partitioning in the two-phase organic/reverse micelle system (Tween rich heavy phase, excess hexane phase); type: biochemical; set-up: made in house; conditions: Tween rich heavy phase of the organic/reverse micelle two-phase system
Source text: As set forth above, if the products of the reaction are more soluble in the organic phase than in an aqueous phase, it is preferable to choose a system with an excess of organic phase to facilitate product removal. Such a region can be found, for example, in FIG. 2C in the lower left hand corner of the phase diagram. This region is illustrated in FIG. 12 as the shaded area.
In this region, close to the single phase region, reverse micelles form with an excess hexane phase which has a low concentration (<15 mM) of Tween with adsorbed water.

[4] = Tris-HCl buffer, 10% Methanol added to enhance solubility

Q: `OCCO` [ethylene glycol] was tested. Which “effect on enzyme activity” value ([1]; micelles prepared with it as a cosurfactant) did it give?
A: The value was “enhanced enzyme activity”.

Q: For `COP(=O)(OC)Oc1ccc([N+](=O)[O-])cc1` [METHYL PARAOXON, methyl paraoxon], which Km ([2]; Tris-HCl buffer) is on record?
A: The Km was 0.146 mM.

Q: What about the Vmax ([2]; Tris-HCl buffer) of the same compound?
A: The Vmax was 2293 µmol/mg/min.

Q: And the kcat ([2]; Tris-HCl buffer)?
A: Its kcat is 1509 s⁻¹.

Q: And the “kcat /KM” value ([2]; Tris-HCl buffer)?
A: The value was 10,340 mM^-1 s^-1.

Q: What about the Km ([2]; micelles, Wo 5.5) of the same compound?
A: The Km was 17.2 ± 3.2 mM.

Q: And the Vmax ([2]; micelles, Wo 5.5)?
A: The Vmax was 26.5 ± 2.8 µmol/mg/min.

Q: What about the kcat ([2]; micelles, Wo 5.5) of the same compound?
A: Its kcat is 17 s⁻¹.

Q: What about the “kcat /KM” value ([2]; micelles, Wo 5.5) of the same compound?
A: The value was 1.0 mM⁻¹ s⁻¹.

Q: What about the Km ([2]; micelles, Wo 28) of the same compound?
A: Its Km is 15.6 ± 2 mM.

Q: And the Vmax ([2]; micelles, Wo 28)?
A: The Vmax was 43.2 ± 2.4 µmol/mg/min.

Q: What about the kcat ([2]; micelles, Wo 28) of the same compound?
A: The kcat was 28 s⁻¹.

Q: What about the “kcat /KM” value ([2]; micelles, Wo 28) of the same compound?
A: The value was 1.182 mM⁻¹ s⁻¹.

Q: And the Km ([2]; micelles, Wo 46)?
A: The Km was 15.3 ± 1.9 mM.

Q: And the Vmax ([2]; micelles, Wo 46)?
A: Its Vmax is 53.1 ± 3.0 µmol/mg/min.

Q: And the kcat ([2]; micelles, Wo 46)?
A: The kcat was 35 s⁻¹.

Q: And the “kcat /KM” value ([2]; micelles, Wo 46)?
A: The value was 2.28 mM⁻¹ s⁻¹.

Q: And the Km ([2]; micelles, Wo 66)?
A: The Km was 37.2 ± 11 mM.

Q: What about the Vmax ([2]; micelles, Wo 66) of the same compound?
A: The Vmax was 192 ± 37 µmol/mg/min.

Q: What about the kcat ([2]; micelles, Wo 66) of the same compound?
A: Its kcat is 126 s⁻¹.

Q: And the “kcat /KM” value ([2]; micelles, Wo 66)?
A: Its value is 3.35 mM⁻¹ s⁻¹.

Q: And the Km ([2]; micelles, Wo 82)?
A: Its Km is 32.9 ± 8.9 mM.

Q: And the Vmax ([2]; micelles, Wo 82)?
A: Its Vmax is 225 ± 38 µmol/mg/min.

Q: What about the kcat ([2]; micelles, Wo 82) of the same compound?
A: Its kcat is 148 s⁻¹.

Q: And the “kcat /KM” value ([2]; micelles, Wo 82)?
A: Its value is 4.5 mM⁻¹ s⁻¹.

Q: And the Km ([2]; micelles, Wo 122)?
A: The Km was 50 ± 19 mM.

Q: What about the Vmax ([2]; micelles, Wo 122) of the same compound?
A: Its Vmax is 397 ± 111 µmol/mg/min.

Q: And the kcat ([2]; micelles, Wo 122)?
A: The kcat was 261 s⁻¹.

Q: And the “kcat /KM” value ([2]; micelles, Wo 122)?
A: Its value is 5.2 mM⁻¹ s⁻¹.

Q: `CCOP(=S)(OCC)Oc1ccc([N+](=O)[O-])cc1` [PARATHION, Parathion] was tested. Which Km [2, 4] did it give?
A: The Km was 0.35 ± 0.08 mM.

Q: And the Vmax [2, 4]?
A: Its Vmax is 2850 ± 540 µmol/mg/min.

Q: What about the kcat [2, 4] of the same compound?
A: The kcat was 1870 ± 360 s⁻¹.

Q: What about the “kcat /KM” value [2, 4] of the same compound?
A: Its value is 5,340 mM^-1 s^-1.

Q: What about the Km ([2]; micelles, Wo 6) of the same compound?
A: Its Km is 81 ± 16 mM.

Q: And the Vmax ([2]; micelles, Wo 6)?
A: The Vmax was 1.37 ± 0.15 µmol/mg/min.

Q: What about the kcat ([2]; micelles, Wo 6) of the same compound?
A: The kcat was 0.90 ± 0.10 s⁻¹.

Q: And the “kcat /KM” value ([2]; micelles, Wo 6)?
A: The value was 0.011 mM⁻¹ s⁻¹.

Q: What about the Vmax ([2]; micelles, Wo 29) of the same compound?
A: Its Vmax is 9.7 ± 1.4 µmol/mg/min.

Q: And the kcat ([2]; micelles, Wo 29)?
A: The kcat was 6.4 ± 0.9 s⁻¹.

Q: And the “kcat /KM” value ([2]; micelles, Wo 29)?
A: The value was 0.054 mM⁻¹ s⁻¹.

Q: What about the Vmax ([2]; micelles, Wo 45) of the same compound?
A: Its Vmax is 14.7 ± 2.4 µmol/mg/min.

Q: And the kcat ([2]; micelles, Wo 45)?
A: Its kcat is 9.7 ± 1.6 s⁻¹.

Q: What about the “kcat /KM” value ([2]; micelles, Wo 45) of the same compound?
A: The value was 0.074 mM⁻¹ s⁻¹.

Q: What about the Vmax ([2]; micelles, Wo 70) of the same compound?
A: The Vmax was 28 ± 17 µmol/mg/min.

Q: What about the kcat ([2]; micelles, Wo 70) of the same compound?
A: The kcat was 18 ± 11 s⁻¹.

Q: And the “kcat /KM” value ([2]; micelles, Wo 70)?
A: Its value is 0.082 mM⁻¹ s⁻¹.

Q: What about the Vmax ([2]; micelles, Wo 85) of the same compound?
A: The Vmax was 52 ± 28 µmol/mg/min.

Q: What about the kcat ([2]; micelles, Wo 85) of the same compound?
A: Its kcat is 34 ± 18 s⁻¹.

Q: What about the “kcat /KM” value ([2]; micelles, Wo 85) of the same compound?
A: Its value is 0.082 mM⁻¹ s⁻¹.

Q: `CC(C)O` [isopropanol] was tested. Which “effect on activity of phosphotriesterase” value ([1]; in buffer) did it give?
A: The value was “reduce the activity”.

Q: `CCOP(=O)(OCC)Oc1ccc([N+](=O)[O-])cc1` [PARAOXON, Paraoxon] was tested. Which Km [3] did it give?
A: The Km was 32 mM.

Q: And the kcat [3]?
A: Its kcat is 975 s⁻¹.

Q: And the Vmax ([2]; Tris-HCl buffer)?
A: The Vmax was 1.686 ± 42 µmol/mg/min.

Q: What about the kcat ([2]; Tris-HCl buffer) of the same compound?
A: Its kcat is 1,110 ± 28 s^-1.

Q: What about the “kcat /KM” value ([2]; Tris-HCl buffer) of the same compound?
A: The value was 58,421 mM^-1 s^-1.

Q: And the Km ([2]; micelles, Wo 6.9)?
A: Its Km is 14.3 ± 3.4 mM.

Q: What about the Vmax ([2]; micelles, Wo 6.9) of the same compound?
A: The Vmax was 107 ± 12 µmol/mg/min.

Q: What about the kcat ([2]; micelles, Wo 6.9) of the same compound?
A: Its kcat is 70.3 ± 7.9 s⁻¹.

Q: What about the “kcat /KM” value ([2]; micelles, Wo 6.9) of the same compound?
A: Its value is 4.9 mM⁻¹ s⁻¹.

Q: What about the Km ([2]; micelles, Wo 30) of the same compound?
A: The Km was 28.9 ± 3.8 mM.

Q: What about the Vmax ([2]; micelles, Wo 30) of the same compound?
A: The Vmax was 430 ± 28 µmol/mg/min.

Q: What about the kcat ([2]; micelles, Wo 30) of the same compound?
A: The kcat was 283 ± 18.4 s⁻¹.

Q: What about the “kcat /KM” value ([2]; micelles, Wo 30) of the same compound?
A: Its value is 9.8 mM⁻¹ s⁻¹.

Q: And the Km ([2]; micelles, Wo 45)?
A: The Km was 31.2 ± 8.2 mM.

Q: And the Vmax ([2]; micelles, Wo 45)?
A: The Vmax was 556 ± 80 µmol/mg/min.

Q: And the kcat ([2]; micelles, Wo 45)?
A: Its kcat is 366 ± 53 s⁻¹.

Q: What about the “kcat /KM” value ([2]; micelles, Wo 45) of the same compound?
A: The value was 11.8 mM⁻¹ s⁻¹.

Q: And the Km ([2]; micelles, Wo 69)?
A: The Km was 34.8 ± 9 mM.

Q: What about the Vmax ([2]; micelles, Wo 69) of the same compound?
A: The Vmax was 992 ± 149 µmol/mg/min.

Q: And the kcat ([2]; micelles, Wo 69)?
A: Its kcat is 653 ± 98 s⁻¹.

Q: And the “kcat /KM” value ([2]; micelles, Wo 69)?
A: Its value is 18.8 mM⁻¹ s⁻¹.

Q: What about the Km ([2]; micelles, Wo 86) of the same compound?
A: The Km was 33.3 ± 6.7 mM.

Q: And the kcat ([2]; micelles, Wo 86)?
A: Its kcat is 789 ± 86 s⁻¹.

Q: And the “kcat /KM” value ([2]; micelles, Wo 86)?
A: The value was 23.7 mM⁻¹ s⁻¹.

Q: What about the Km ([2]; micelles, Wo 125) of the same compound?
A: The Km was 29.5 ± 8.3 mM.

Q: What about the Vmax ([2]; micelles, Wo 125) of the same compound?
A: The Vmax was 1.753 ± 259 µmol/mg/min.

Q: And the kcat ([2]; micelles, Wo 125)?
A: The kcat was 1150 ± 170 s⁻¹.

Q: What about the “kcat /KM” value ([2]; micelles, Wo 125) of the same compound?
A: Its value is 39.1 mM⁻¹ s⁻¹.
